Assay results as given in US10537570B2, “Use of pimobendan for the reduction of heart size and/or the delay of onset of clinical symptoms in patients with asymptomatic heart failure due to mitral valve disease” (priority 2016, dated 2020).

Legend:
[1] = test system: dogs with MMVD and echocardiographic and radiographic evidence of cardiomegaly; settings: dog, in vivo
[2] = test system: dogs suffering from asymptomatic (occult, preclinical) heart failure due to mitral valve disease (MVD); assay: Interim analysis: pimobendan vs placebo in dogs with asymptomatic heart failure due to MVD; type: in vivo
dogs = settings: two dogs; long-term (chronic) clinical therapy; Tissier R et al. 2005; cited from earlier work
[3] = test system: dogs with asymptomatic mitral valve disease; settings: after addition of pimobendan to ACE inhibitor treatment; Ouellet M et al. 2009; cited from earlier work
[4] = test system: dogs with MMVD and echocardiographic and radiographic evidence of cardiomegaly; assay: Blinded, placebo controlled study of 360 dogs (preliminary analysis of final results)

SMILES: COc1ccc(-c2nc3ccc(C4=NNC(=O)CC4C)cc3[nH]2)cc1 (stereo not shown) [pimobendan, 4,5-dihydro-6-[2-(4-methoxyphenyl)-1H-benzimidazol-5-yl]-5-methyl-3(2H)-pyridazinone]
- safety and tolerability [1]: safe and well tolerated
- extension of survival time (all-cause mortality) compared to placebo ([2]; also printed as 5.6 months): approx. 168 days
- prolongation of time to the onset of clinical signs of congestive heart failure compared to placebo ([2]; also printed as 12.0 months): approx. 359 days
- adverse effects (dogs): increased mitral valve regurgitation and myocardial hypertrophy
- long-term changes in the severity of mitral regurgitation [3]: failed to identify beneficial long-term changes
- heart size ([4]; compared to the placebo group, measured over the first 35 days of the study, P<0.0001): reduction in heart size
- rate or type of potential adverse events ([4]; pimobendan group vs placebo group): no difference between groups
- Median time to the primary endpoint ([4]; pimobendan group, 95% CI 856—NA, placebo group 766 days, P=0.0038): 1228 days
- Prolongation of the preclinical period ([4]; vs placebo group): approximately 15 months
- Overall survival, as determined by All Cause Mortality ([4]; vs placebo group, P=0.012): significantly longer
